# Measured values reported in PMC5516028, “Molecular tools for GABAA receptors: High affinity ligands for β1-containing subtypes” (Scientific Reports, 2017).
# Where “and” joins values, the source holds several entries; their conditions need not be identical. Equal entries are not always repeated. Where two headings read alike, the source gives them in different places.
# Experiments:
# [1] = biological target: benzodiazepine binding site, rat cerebellum membranes; assay: [3H]flunitrazepam saturation binding, rat cerebellar membranes; conditions: n = 3, read-out: equilibrium binding constant KD
# Procedure: In brief, membrane pellets were incubated for 90 min at 4 °C in a total of 500 µL of a solution containing 50 mM Tris/citrate buffer, pH = 7.1, 150 mM NaCl and 2 nM [^3H]flunitrazepam in the absence or presence of either 5 µM diazepam (to determine unspecific binding) or various concentrations of receptor ligands (dissolved in DMSO, final DMSO-concentration 0.5%). Membranes were filtered through Whatman GF/B filters and washed twice with 4 mL of ice-cold 50 mM Tris/citrate buffer. Filters were transferred to scintillation vials and subjected to scintillation counting after the addition of 3 mL Rotiszint Eco plus liquid scintillation cocktail. Nonlinear regression analysis of the displacement curves used the equation: log(inhibitor) vs. response - variable slope with Top = 100% and Bottom = 0% Y = 100/(1 + 10^((logIC50-x)*Hillslope)).
# [2] = biological target: T1, α1β3 GABAA receptors (Rattus norvegicus, UniProt P62813+P63079); assay: Two electrode voltage clamp in Xenopus laevis oocytes, α1β3; format: cell-based
# T1 construct: expressed in transfected cells; host or cells: Xenopus laevis oocytes, mRNA injected
# Excerpt: (§1) cDNA’s of rat GABAA receptor subunits α1, α4, β1, β2, β3 and γ2S were cloned as described. cDNAs of the rat subunits α2, α3 and α5 were gifts from P. Malherbe, that of α6 and γ1 were gifts of P. Seeburg and that of δ was a gift of C. Czajkowski. The mutants were constructed using the Q5 Site-Directed Mutagenesis Kit (New England Biolabs) following manufacturer’s instruction. We used the wild-type rat β3-pCI vector as template and the primers […] and […] resulting in a substitution of amino acid N41 (AAC) to R (AGG). We used the wild-type rat β1-pCI vector as template and the primers […] and […] resulting in a substitution of amino acid R41 (CGG) to N (AAC). The mutated subunits were confirmed by sequencing.
# (§2) In vitro transcription of mRNA was based on the cDNA expression vectors encoding for rat GABAA receptor subunits α1–6, β1-3, γ1,2, δ and the two β mutants (β1R41N and β3N41R)[40]. After linearizing the cDNA vectors with appropriate restriction endonucleases, the cDNA was purified and concentrated with the DNA Clean and Contentrator ^TM Kit (Zymoresearch, Catalog No. D4005). Capped transcripts of the purified cDNA were produced using the mMESSAGE mMACHINE® T7 transcription kit (Ambion, TX, USA) and polyadenylated using the Ambion PolyA tailing kit (Ambion). After transcription and polyadenylation the RNA was purified with the MEGAclear ^TM Kit (Ambion, Catalog No. AM1908). The final RNA concentration was measured on NanoDrop® ND-1000 and finally diluted and stored in diethylpyrocarbonate-treated water at −80 °C. For the microinjection, the RNA of αβ receptor combinations was mixed at 1:1 ratio (which leads to αβ receptors that consist of predominantly 3 beta and 2 alpha subunits[27]), for αkβlγm (k = 1–3, l = 1, 3, m = 1, 2) receptors at 1:1:5 ratio, for αkβ3γ2 (k = 4–6) and αkβlδ (k = 1, 4 and 6, l = 1, 3) receptor combinations at 3:1:5 ratio.
# (§3) Mature female Xenopus laevis (Nasco, WI) were anesthetized in a bath of ice-cold 0.17% Tricain (Ethyl-m-aminobenzoate, Sigma, MO) before decapitation in full accordance with all rules of the Austrian animal protection law (see http://www.ris.bka.gv.at/Dokumente/BgblAuth/BGBLA_2012_I_114/BGBLA_2012_I_114.pdf) and the Austrian animal experiment by-laws (see https://www.ris.bka.gv.at/Dokumente/BgblAuth/BGBLA_2012_II_522/BGBLA_2012_II_522.pdf) which implement the European Directive 2010/63/EU (see http://eur-lex.europa.eu/LexUriServ/LexUriServ.do?uri=OJ:L:2010:276:0033:0079:en:PDF) into the Austrian law (all information accessed on July 27, 2016). The frog’s ovaries were transferred to ND96 medium (96 mM NaCl, 2 mM KCl, 1 mM MgCl2, 5 mM HEPES; pH 7.5). Stage 5–6 oocytes with the follicle cell layer around them were roughly dissected with forceps into packages of 10–15 cells and washed in Ca^2+-free ND96 medium. Cells were then digested with collagenase (type IA, Sigma, NO, 1 mg/mL ND96) at 18 °C shaking at 30 rpm for 30–60 minutes and gently defolliculated with the aid of a glass pipette with appropriate tip diameter and a platinum loop. Defolliculated cells were stored at 18 °C for at least 6 hours in ND96 solution containing penicillin G (10000 IU/100 mL) and streptomycin (10 mg/100 mL) in order to preselect and exclude damaged cells from further treatment. Healthy defolliculated oocytes were injected with an aqueous solution of mRNA. A total of 4.5 ng of mRNA per oocyte was injected with a Nanoject II (Drummond). After injection of mRNA, oocytes were incubated at 18 °C (ND96 + antibiotic) for 2–3 days for αβ receptors and for 3–4 days for αβγ or αβδ receptors before recording. When cells were measured at later time points, oocytes were stored at +4 °C instead of 18 °C.
# (§4) For electrophysiological recordings, oocytes were placed on a nylon-grid in a bath of Ca^2+-containing NDE solution medium [96 mM NaCl, 5 mM HEPES-NaOH (pH 7.5), 2 mM KCl, 1 mM MgCl2, 1.8 mM CaCl2].
# [3] = biological target: T2, α1β1 GABAA receptors (Rattus norvegicus, UniProt P15431+P62813); assay: Two electrode voltage clamp in Xenopus laevis oocytes, α1β1; format: cell-based; conditions: for EC50: read-out: EC50
# T2 construct: expressed in transfected cells; host or cells: Xenopus laevis oocytes, mRNA injected
# Excerpt: as §1, §2, §3, §4
# [4] = biological target: T3, α1β1R41N GABAA receptors (Rattus norvegicus, UniProt P15431+P62813, R66N); assay: Two electrode voltage clamp in Xenopus laevis oocytes, mutant α1β1R41N; format: cell-based
# T3 construct: expressed in transfected cells; host or cells: Xenopus laevis oocytes, mRNA injected
# Excerpt: as §1, §2, §3, §4
# [5] = biological target: T4, α1β2 GABAA receptors (Rattus norvegicus, UniProt P62813+P63138); assay: Two electrode voltage clamp in Xenopus laevis oocytes, α1β2; format: cell-based
# T4 construct: expressed in transfected cells; host or cells: Xenopus laevis oocytes, mRNA injected
# Excerpt: as §1, §2, §3, §4
# [6] = biological target: T5, α1β3N41R GABAA receptors (Rattus norvegicus, UniProt P62813+P63079, N66R); assay: Two electrode voltage clamp in Xenopus laevis oocytes, mutant α1β3N41R; format: cell-based
# T5 construct: expressed in transfected cells; host or cells: Xenopus laevis oocytes, mRNA injected
# Excerpt: as §1, §2, §3, §4
# T2 sequence (P62813 28-455): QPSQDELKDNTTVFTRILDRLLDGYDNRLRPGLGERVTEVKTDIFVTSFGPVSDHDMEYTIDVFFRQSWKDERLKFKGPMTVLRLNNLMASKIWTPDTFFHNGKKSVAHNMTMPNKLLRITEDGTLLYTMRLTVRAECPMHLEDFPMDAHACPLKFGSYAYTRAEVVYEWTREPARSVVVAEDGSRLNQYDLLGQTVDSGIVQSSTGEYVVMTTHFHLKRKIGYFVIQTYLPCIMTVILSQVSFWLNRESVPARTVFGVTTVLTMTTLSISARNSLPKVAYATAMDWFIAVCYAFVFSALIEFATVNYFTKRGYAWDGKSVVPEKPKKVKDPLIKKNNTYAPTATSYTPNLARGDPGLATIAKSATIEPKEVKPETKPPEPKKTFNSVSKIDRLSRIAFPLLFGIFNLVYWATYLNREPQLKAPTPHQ
# T2 sequence (P15431 26-474): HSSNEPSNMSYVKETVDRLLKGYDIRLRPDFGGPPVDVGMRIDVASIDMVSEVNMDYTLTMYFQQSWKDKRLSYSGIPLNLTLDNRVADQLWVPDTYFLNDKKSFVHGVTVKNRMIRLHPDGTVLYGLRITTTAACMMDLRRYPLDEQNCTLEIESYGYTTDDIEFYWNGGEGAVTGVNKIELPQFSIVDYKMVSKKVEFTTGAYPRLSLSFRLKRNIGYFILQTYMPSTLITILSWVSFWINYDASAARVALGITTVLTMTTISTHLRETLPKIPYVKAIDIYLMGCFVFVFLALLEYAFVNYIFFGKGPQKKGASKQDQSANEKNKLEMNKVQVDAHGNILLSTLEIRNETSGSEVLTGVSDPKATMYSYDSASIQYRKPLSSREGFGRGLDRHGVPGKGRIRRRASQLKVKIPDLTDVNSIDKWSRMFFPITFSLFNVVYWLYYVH
# T3 sequence (P62813 28-455): as the sequence (P62813 28-455) above
# T3 sequence (P15431 26-474 R66N): as the sequence (P15431 26-474) above, with R41N counted along it
# T4 sequence (P62813 28-455): as the sequence (P62813 28-455) above
# T4 sequence (P63138 25-474 limits assumed): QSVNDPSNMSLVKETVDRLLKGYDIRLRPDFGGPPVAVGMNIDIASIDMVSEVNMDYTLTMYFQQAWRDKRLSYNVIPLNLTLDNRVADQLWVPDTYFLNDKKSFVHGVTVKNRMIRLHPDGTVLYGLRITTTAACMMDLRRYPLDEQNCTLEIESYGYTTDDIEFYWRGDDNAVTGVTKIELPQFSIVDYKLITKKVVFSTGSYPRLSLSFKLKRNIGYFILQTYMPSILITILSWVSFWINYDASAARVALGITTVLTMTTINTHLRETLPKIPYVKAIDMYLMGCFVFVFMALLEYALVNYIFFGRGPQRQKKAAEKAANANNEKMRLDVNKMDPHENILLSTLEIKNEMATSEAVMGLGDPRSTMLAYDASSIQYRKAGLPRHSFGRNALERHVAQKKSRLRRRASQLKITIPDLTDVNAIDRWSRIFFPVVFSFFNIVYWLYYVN
# T5 sequence (P62813 28-455): as the sequence (P62813 28-455) above
# T5 sequence (P63079 26-473 N66R): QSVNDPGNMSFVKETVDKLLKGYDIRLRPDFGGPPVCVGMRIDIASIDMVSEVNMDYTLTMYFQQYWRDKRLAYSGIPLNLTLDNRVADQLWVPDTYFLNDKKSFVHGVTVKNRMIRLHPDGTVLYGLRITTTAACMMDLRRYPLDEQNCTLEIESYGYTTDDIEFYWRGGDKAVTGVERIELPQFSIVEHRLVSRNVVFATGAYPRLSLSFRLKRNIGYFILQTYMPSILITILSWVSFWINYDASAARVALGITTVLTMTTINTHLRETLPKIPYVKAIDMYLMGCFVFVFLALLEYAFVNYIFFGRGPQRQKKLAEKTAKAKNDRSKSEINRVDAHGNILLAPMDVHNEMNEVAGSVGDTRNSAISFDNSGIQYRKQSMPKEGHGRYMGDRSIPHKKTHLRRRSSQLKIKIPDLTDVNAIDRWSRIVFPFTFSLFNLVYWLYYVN
# T1 sequence (P62813 28-455): as the sequence (P62813 28-455) above
# T1 sequence (P63079 26-473): as the sequence (P63079 26-473 N66R) above, with R41N counted along it
smiles,measurement,setting,value
CN1C(=O)CN=C(c2ccccc2F)c2cc([N+](=O)[O-])ccc21 [[^3H]flunitrazepam],Kd,[1],0.0048 ± 0.0003 µM
"COc1ccc(-n2nc3c4cc(OC)ccc4[nH]cc-3c2=O)cc1 [Compound 4, 8-Methoxy-2-(4-methoxyphenyl)-2,5-dihydro-3H-pyrazolo[4,3-c]quinolin-3-one]",activity at 0.3 µM,"[2]; read-out: efficacy, % of control current (GABA EC3-5 = 100%), α1β3, 300 nM",149 ± 15.8%
same,activity at 1 µM,"[2]; read-out: efficacy, % of control current (GABA EC3-5 = 100%), α1β3, 1 µM",242 ± 16%
same,activity at 3 µM,"[2]; read-out: efficacy, % of control current (GABA EC3-5 = 100%), α1β3, 3 µM",654 ± 109%
same,Hill slope (nH),[2]; α1β3,1.9±0.5
same,EC50,"[2]; α1β3, co-applied with GABA EC3-5, read-out: EC50",3.13 µM
same,EC50,"[2]; α1β3, log of EC50, sign as printed, read-out: LogEC50 (converted)",3.09 µM
same,activity at 0.001 µM,"[3]; read-out: efficacy, % of control current (GABA EC3-5 = 100%), α1β1, 1 nM",100%
same,activity at 0.003 µM,"[3]; read-out: efficacy, % of control current (GABA EC3-5 = 100%), α1β1, 3 nM",100%
same,activity at 0.03 µM,"[3]; read-out: efficacy, % of control current (GABA EC3-5 = 100%), α1β1, 30 nM",127 ± 1%
same,activity at 0.3 µM,"[3]; read-out: efficacy, % of control current (GABA EC3-5 = 100%), α1β1, 300 nM",397 ± 54.9%
same,activity at 30 µM,"[3]; read-out: efficacy, % of control current (GABA EC3-5 = 100%), α1β1, 30 µM",218 ± 11%
same,Hill slope (nH),[3]; α1β1,1.8±0.4
same,EC50,[3]; α1β1 (α1+/β1− interface),~0.2 µM
same,EC50,"[3]; α1β1, co-applied with GABA EC3-5",0.21 µM
same,current as % of control at 0.1 µM,"[4]; 100nM, read-out: % of control current at EC3-5",80 ± 10%
same,current as % of control at 0.3 µM,"[4]; 300nM, read-out: % of control current at EC3-5",85 ± 12%
same,current as % of control at 1 µM,"[4]; 1μM, read-out: % of control current at EC3-5",110 ± 20%
same,current as % of control at 3 µM,"[4]; 3µM, read-out: % of control current at EC3-5",150 ± 25%
same,current as % of control at 10 µM,"[4]; 10μM, read-out: % of control current at EC3-5",180 ± 45%
same,current as % of control at 30 µM,"[4]; 30μM, read-out: % of control current at EC3-5",140 ± 15%
same,EC50,[4]; co-applied with GABA EC3-5,1.2 µM
same,EC50,[5],2.62 µM
same,activity at 0.003 µM,"[5]; read-out: efficacy, % of control current (GABA EC3-5 = 100%), α1β2, 3 nM",100%
same,activity at 0.03 µM,"[5]; read-out: efficacy, % of control current (GABA EC3-5 = 100%), α1β2, 30 nM",100%
same,activity at 0.3 µM,"[5]; read-out: efficacy, % of control current (GABA EC3-5 = 100%), α1β2, 300 nM",166 ± 7.9%
same,activity at 3 µM,"[5]; read-out: efficacy, % of control current (GABA EC3-5 = 100%), α1β2, 3 µM",689 ± 82.9%
same,Hill slope (nH),[5]; α1β2,1.3±0.5
same,EC50,"[6]; co-applied with GABA EC3-5, read-out: EC50 values for the mutated receptors",1.2 µM
"NCCCC(=O)O [GABA, γ-Aminobutyric acid]",GABA current amplitude,"[2]; α1β3, 100 nM GABA",0.0±0.0 µA
same,GABA current amplitude,"[2]; α1β3, 1 µM GABA",0.5±0.1 µA
same,GABA current amplitude,"[2]; α1β3, 10 μM GABA",1.9±0.3 µA
same,GABA current amplitude,"[2]; α1β3, 100 µM GABA",2.7±0.4 µA
same,GABA current amplitude,"[2]; α1β3, 1 mM GABA",3.5±0.5 µA
same,GABA Hill slope (nH),"[2]; α1β3, GABA dose-response curve",0.7±0.0
same,GABA current amplitude,"[3]; α1β1, 100 nM GABA",0.1±0.0 µA
same,GABA current amplitude,"[3]; α1β1, 1 µM GABA",0.7±0.1 µA
same,GABA current amplitude,"[3]; α1β1, 10 μM GABA",2.2±0.3 µA
same,GABA current amplitude,"[3]; α1β1, 100 µM GABA",3.1±0.4 µA
same,GABA current amplitude,"[3]; α1β1, 1 mM GABA",4.0±0.5 µA
same,GABA Hill slope (nH),"[3]; α1β1, GABA dose-response curve",0.6±0.3
same,GABA current amplitude,[4]; 100 nM GABA,0.1±0.0 µA
same,GABA current amplitude,[4]; 1 µM GABA,0.7±0.1 µA
same,GABA current amplitude,[4]; 10 μM GABA,2.3±0.5 µA
same,GABA current amplitude,[4]; 100 µM GABA,2.9±0.7 µA
same,GABA current amplitude,[4]; 1 mM GABA,2.8±0.8 µA
same,GABA Hill slope (nH),[4]; GABA dose-response curve,1.2±0.1 and ~ 1.2
same,GABA current amplitude,"[5]; α1β2, 100 nM GABA",0.0±0.0 µA
same,GABA current amplitude,"[5]; α1β2, 1 µM GABA",0.5±0.2 µA
same,GABA current amplitude,"[5]; α1β2, 10 μM GABA",1.9±0.5 µA
same,GABA current amplitude,"[5]; α1β2, 100 µM GABA",2.6±0.6 µA
same,GABA current amplitude,"[5]; α1β2, 1 mM GABA",3.1±0.7 µA
same,GABA Hill slope (nH),"[5]; α1β2, GABA dose-response curve",0.7±0.1
same,GABA current amplitude,[6]; 100 nM GABA,0.0±0.0 µA
same,GABA current amplitude,[6]; 1 µM GABA,1.3±0.5 µA
same,GABA current amplitude,[6]; 10 μM GABA,3.5±0.9 µA
same,GABA current amplitude,[6]; 100 µM GABA,4.0±1.1 µA
same,GABA current amplitude,[6]; 1 mM GABA,4.1±1.2 µA
same,GABA Hill slope (nH),[6]; GABA dose-response curve,1.2±0.1 and ~ 1.2
